Measured values: patent US20130345257A1, “COMPOSITION FOR LUPUS NEPHRITIS AND METHODS OF MAKING AND USING THE SAME” (The Regents of the University of California, priority 2012, published 2013)
Entries after “also recorded” stand apart in the source; their conditions may differ.

What was measured:
Type in all cases: in vivo, mouse
[1] = test system: BWF1 mice with high proteinuria (PU^hi); test: Therapeutic treatment of BWF1 mice after clinical nephritis / high proteinuria (PU^hi); details: for Survival: treated after clinical nephritis / PU^hi, LAQ 25 mg/kg 3 times a week, MMF 100 mg/kg 5 times a week
Experimental: (§1) Therapeutic Groups: a low proteinuria group)(PU^lo) consisted of mice with IgG anti-dsDNA detectable in serum and proteinuria ≦100 mg/dL, and a high proteinuria group (PU^hi) had proteinuria ≧300 mg/dL.
(§2) Proteinuria was evaluated weekly using Albustix (Siemens), serum creatinine using a commercial kit (Arbor Assays) and anti-dsDNA IgG antibodies by ELISA as described previously (10). See, e.g., FIGS. 1 and 2.
(§3) Kidney specimens of BWF1 mice (37 weeks of age in the prevention group or 7 and 11 weeks after institution of early or late therapies) were embedded in OCT compound and snap frozen. 4-5 μm an sections were air-dried, fixed with cold acetone and incubated with blocking buffer (anti-CD16/CD32 (1/50), 2% normal goat or rat serum, 2% BSA).
(§4) Histological analysis of glomerular pathology was done by an investigator blinded to treatment group and included acute inflammatory features (endocapillary hypercellularity, mesangial hypercellularity, cellular necrosis, cellular crescents, and interstitial inflammation), and chronic features (global glomerulosclerosis (GS), focal segmental glomerulosclerosis (FSGS), and interstitial fibrosis or tubular atrophy (IF/TA)). […] The weighted total score of the clinical features was based on this formula: [endocapillary hypercellularity+mesengial hypercellularity+(cellular necrosis*2)+(cellular crescents*2)+interstitial inflammation)/5]+(GS+FSGS+IFTA)/3, with maximum score 5.2. A minimum of 25 glomeruli, of at least 10 mice per group, were scored. Scores from each individual mouse were added and averaged to yield the glomerulonephritis score.

[2] = test system: BWF1 mice with anti-dsDNA and low proteinuria (PU^lo); test: Therapeutic treatment of BWF1 mice with anti-dsDNA and low proteinuria (PU^lo); details: LAQ 25 mg/kg, MMF 100 mg/kg
Experimental: as §1, §2, §3, §4

spleen cell subsets [3] = test: Spleen cell subsets of treated BWF1 mice by flow cytometry
Text: Water-gavaged mice constituted the control untreated animals. The spleen cell subsets were identified by the expression of cell surface markers at age 32 weeks as follow: iTregs; nTregs; MΦ: CD11b^−CD103^−; MΦ^2: CD11b^+Ly6C^hiGr-1^−; MΦ^3: CD11b^+Ly6C^intGr-1^−; Gr-1: CD11b ly6C^intGr-1^+; DC: CD11c^+CD103^+; T2: CD19^+CD23^+CD21^+IgM^hi; MZ: CD19^+CD23^−CD21^+IgM^hi. Abbreviations: iTregs=induced T regulatory cells (Tregs). nTregs=natural Tregs. T2=transitional 2 B cells. MZ=marginal zone B cells. MΦ=macrophages. Gr1=granulocytes. Values are mean±SEM. The statistical significance between the groups was determined by analysis of variance (-A-NOVA). ^AP<0.05 versus untreated controls.
(§5) Single cell suspensions of splenocytes or kidney cells were prepared using cell strainers (Fisher), followed by red blood cell lysis. Kidney lymphocytes were separated from connective tissue by centrifugation (15 minutes at 400g) in 30% Percoll (GE Healthcare). CD4^+CD25^− cells from spleen and kidney were isolated using the CD4^+CD25^+ regulatory T cell isolation kit according to manufacturer's protocol (Miltenyi). CD11b+ cells were isolated using EasySep mouse CD11b positive selection kit (StemCell Technologies), surface stained for Ly6C and Ly6G prior to sorting myeloid-derived suppressor cells (MDSC) using FACSAria II. Populations were >95% pure by FACS analysis.
(§6) Single-cell suspensions from spleen or kidneys were stained for extracellular markers for 20 min at 4° C. in PBS/1% FBS. Intracellular staining for Foxp3 and cytokines was performed using the Foxp3 Fixation/Permeabilization kit according to the manufacturer's protocol (eBioscience). Cells were acquired on a FACS LSR II (BD) and data was analyzed using Flowjo (Tree Star).

[4] = test system: leukocyte subsets present in kidney; test: Leukocyte subsets in kidney of treated BWF1 mice by flow cytometry; design: Frequency of cells ± SEM: CD11c^+CD11b− (DC) / Frequency of cells ± SEM: CD11b^+Ly6C^+Ly6G− / Frequency of cells ± SEM: CD11b^+Ly6C^+Ly6G+ / Frequency of cells ± SEM: CD4+ / Frequency of cells ± SEM: CD8+ / Frequency of cells ± SEM: CD11b^+MDSC−(Mφ) / Frequency of cells ± SEM: CD11c^+CD11b+(DC): unit not given here; details: for Frequency of cells ± SEM: CD4+ / Frequency of cells ± SEM: CD8+ / Frequency of cells ± SEM: CD11b^+Ly6C^+Ly6G+ / Frequency of cells ± SEM: CD11b^+Ly6C^+Ly6G− / Frequency of cells ± SEM: CD11b^+MDSC−(Mφ) / Frequency of cells ± SEM: CD11c^+CD11b+(DC) / Frequency of cells ± SEM: CD11c^+CD11b− (DC) / Frequency of cells ± SEM: CD19+: kidney, LAQ 25 mg/kg, MMF 100 mg/kg
Experimental: as §5, §6

spleen cell subsets [5] = test: Spleen cell subsets of treated BWF1 mice by flow cytometry; details: for Frequency of cells ± SEM: CD4+ / Frequency of cells ± SEM: CD8+ / Frequency of cells ± SEM: CD11b^+Ly6C^+Ly6G+ / Frequency of cells ± SEM: CD11b^+Ly6C^+Ly6G− / Frequency of cells ± SEM: CD11b^+MDSC−(Mφ) / Frequency of cells ± SEM: CD11c^+CD11b+(DC) / Frequency of cells ± SEM: CD11c^+CD11b− (DC) / Frequency of cells ± SEM: CD4^+CD25^+Foxp3^+ / Frequency of cells ± SEM: CD19+: spleen, LAQ 25 mg/kg, MMF 100 mg/kg; for Frequency of cells ± SEM: CD4^+CD25^+Foxp3^+ / Frequency of cells ± SEM: CD19+: in % (unit assumed)
[6] = spleen at age 32 weeks, oral gavage from age 11 weeks, LAQ 25 mg/kg 3 days per week, MMF 100 mg/kg 5 days/week
[7] = spleen at age 32 weeks, oral gavage from age 11 weeks, LAQ 25 mg/kg 3 days per week, MMF 100 mg/kg 5 days/week, in % (unit assumed)
[8] = Preventive, 25 weeks after treatment
[9] = Therapeutic (PU^lo), 10 wks after initiation of therapy

CCN(C(=O)c1c(O)c2c(Cl)cccc2n(C)c1=O)c1ccccc1 [LAQ, 5-chloro-N-ethyl-4-hydroxy-1-methyl-2-oxo-N-phenyl-1,2-dihydroquinoline-3-carboxamide]
Rise in serum creatinine ([1]; PU^hi arm, LAQ 25 mg/kg, MMF 100 mg/kg): suppresses
Animals with proteinuria reduced to levels below 300 mg/dL ([1]; PU^hi arm, after 8 weeks of treatment, LAQ 25 mg/kg, MMF 100 mg/kg): 50%
FSGS and IF/TA histology scores ([1]; PU^hi arm, compared to controls): significantly lower
Endo-capillary hypercellularity in the kidney ([1]; PU^hi arm, versus both control and MMF-treated mice): significantly lower
Established proteinuria ([1]; mice that already developed proteinuria, vs water): significant reduction of proteinuria; also recorded: suppresses proteinuria
Survival ([1]; vs water): better; also recorded: significantly increased survival; also recorded: survived
Survival ([1]; vs water, listed as laquinimod): better
Mice with proteinuria present after 3 wks. of treatment ([1]; treated after clinical nephritis appeared (≧3+ proteinuria), water 100%, p<0.001): 25%
Histologic evidence of inflammation in the kidneys ([1]; treatment starting after proteinuria developed, vs water): significantly less histologic evidence of inflammation
Anti-dsDNA ([2]; PU^lo arm): not significantly decreased
Increase of proteinuria ([2]; PU^lo arm): prevented increased proteinuria
Rise in serum creatinine ([2]; PU^lo arm): prevented
Survival ([2]; PU^lo arm): significantly prolonged survival
Reduction of endo-capillary hypercellularity, interstitial inflammation, and focal segmental glomerulosclerosis ([2]; PU^lo mice): equally effective
Percentage of CD8^+ cells in spleen (spleen cell subsets [3]; compared to the control mice): did not; also recorded: not significantly altered
Frequency of cells ± SEM: CD11b^+Ly6C^hiGr-1^− (MΦ^2) (spleen cell subsets [3]; [6]): 12.15 ± 2.11
Frequency of cells ± SEM: CD11b^+Ly6C^intGr-1^+ (Gr-1) (spleen cell subsets [3]; [6]): 41.50 ± 3.08^A
Frequency of cells ± SEM: CD 19^+ (spleen cell subsets [3]; [7]): 68.02 ± 3.83
Frequency of cells ± SEM: CD19^+CD23^−CD21^+IgM^hi (MZ) (spleen cell subsets [3]; [7]): 11.85 ± 2.15
Percentage of CD4^+ T cells in spleen (spleen cell subsets [3]; vs control mice): did not
Frequency of cells ± SEM: CD4+ [4, 8]: 7.0 ± 0.5
Frequency of cells ± SEM: CD8+ [4, 8]: 4.2 ± 0.2
Frequency of cells ± SEM: CD11b^+Ly6C^+Ly6G+ [4, 8]: 7.9 ± 1.9
Frequency of cells ± SEM: CD11b^+Ly6C^+Ly6G− [4, 8]: 44.4 ± 1.5
Frequency of cells ± SEM: CD11b^+MDSC−(Mφ) [4, 8]: 31.0 ± 1.8
Frequency of cells ± SEM: CD11c^+CD11b+(DC) [4, 8]: 0.7 ± 0.1
Frequency of cells ± SEM: CD11c^+CD11b− (DC) [4, 8]: 3.8 ± 0.2
Frequency of cells ± SEM: CD19+ [4, 8]: 4.0 ± 0.5
Frequency of cells ± SEM: CD4+ [4, 9]: 2.8 ± 0.3
Frequency of cells ± SEM: CD8+ [4, 9]: 2.7 ± 0.2
Frequency of cells ± SEM: CD11b^+Ly6C^+Ly6G+ [4, 9]: 13.6 ± 1.2
Frequency of cells ± SEM: CD11b^+Ly6C^+Ly6G− [4, 9]: 41.2 ± 0.4
Frequency of cells ± SEM: CD11b^+MDSC−(Mφ) [4, 9]: 28.4 ± 0.9
Frequency of cells ± SEM: CD11c^+CD11b+(DC) [4, 9]: 0.7 ± 0.1
Frequency of cells ± SEM: CD11c^+CD11b− (DC) [4, 9]: 1.2 ± 0.1
Frequency of cells ± SEM: CD19+ [4, 9]: 2.7 ± 0.2
Number of MM in the kidneys ([4]; mouse, in vivo): suppresses numbers of monocytes/macrophages
Phenotype of MM isolated from kidneys ([4]; mouse, in vivo): promoting change from M1 to M2 phenotypes
Number of MM in the kidneys ([4]; mouse, in vivo, listed as laquinimod): significantly reduced
Percent of CD4^+ Tregs (CD4^+CD25^+Foxp3^+) in splenocytes (spleen cell subsets [5]; FIG. 8): increased
Numbers of two putative regulatory cells, CD4^+CD25^+Foxp3^+ Treg and CD11b^+Ly6C^intGR-1^+ myeloid MM (spleen cell subsets [5]; LAQ compared to MMF): increased
Percentage of CD8^+ cells in spleen (spleen cell subsets [5]; compared to the control mice, listed as laquinimod): did not
Numbers of MM (splenic PBMC) (spleen cell subsets [5]; mouse, in vivo): significantly reduced
Frequency of cells ± SEM: CD11b^+CD103^− (MΦ^1) (spleen cell subsets [5]; [6]): 2.63 ± 0.30^A
Frequency of cells ± SEM: CD11b^+Ly6C^intGr-1^− (MΦ^3) (spleen cell subsets [5]; [6]): 18.48 ± 2.31^A
Frequency of cells ± SEM: CD19^+CD23^+CD21^+IgM^hi (T2) (spleen cell subsets [5]; [6]): 51.19 ± 4.32^A
Frequency of cells ± SEM: CD4+ (spleen cell subsets [5]; [8]): 20.2 ± 0.5
Frequency of cells ± SEM: CD8+ (spleen cell subsets [5]; [8]): 12.3 ± 0.7
Frequency of cells ± SEM: CD11b^+Ly6C^+Ly6G+ (spleen cell subsets [5]; [8]): 31.7 ± 3.6
Frequency of cells ± SEM: CD11b^+Ly6C^+Ly6G− (spleen cell subsets [5]; [8]): 37.5 ± 2.1
Frequency of cells ± SEM: CD11b^+MDSC−(Mφ) (spleen cell subsets [5]; [8]): 25.2 ± 1.7
Frequency of cells ± SEM: CD11c^+CD11b+(DC) (spleen cell subsets [5]; [8]): 0.7 ± 0.1
Frequency of cells ± SEM: CD11c^+CD11b− (DC) (spleen cell subsets [5]; [8]): 3.8 ± 0.2
Frequency of cells ± SEM: CD4^+CD25^+Foxp3^+ (spleen cell subsets [5]; [8]): 9.4 ± 0.6
Frequency of cells ± SEM: CD19+ (spleen cell subsets [5]; [8]): 68.0 ± 3.8
Frequency of cells ± SEM: CD4+ (spleen cell subsets [5]; [9]): 21.3 ± 1.3
Frequency of cells ± SEM: CD8+ (spleen cell subsets [5]; [9]): 24.9 ± 2.9
Frequency of cells ± SEM: CD11b^+Ly6C^+Ly6G+ (spleen cell subsets [5]; [9]): 33.2 ± 5.6
Frequency of cells ± SEM: CD11b^+Ly6C^+Ly6G− (spleen cell subsets [5]; [9]): 38.7 ± 1.9
Frequency of cells ± SEM: CD11b^+MDSC−(Mφ) (spleen cell subsets [5]; [9]): 25.6 ± 3.3
Frequency of cells ± SEM: CD11c^+CD11b+(DC) (spleen cell subsets [5]; [9]): 1.0 ± 0.2
Frequency of cells ± SEM: CD11c^+CD11b− (DC) (spleen cell subsets [5]; [9]): 4.5 ± 0.4
Frequency of cells ± SEM: CD4^+CD25^+Foxp3^+ (spleen cell subsets [5]; [9]): 2.2 ± 0.1
Frequency of cells ± SEM: CD19+ (spleen cell subsets [5]; [9]): 51.1 ± 3.3
Percentage of CD4^+ T cells in spleen (spleen cell subsets [5]; vs control mice, listed as laquinimod): did not
